These results are taken from patent publication US8632452B2, “Peroxisome proliferator-activator receptor δ (PPARδ) and the development of preimplantation embryos” (Board of Regents of the University of Texas System, priority 2005, dated 2014).

Experiment [1] relates to preimplantation mouse embryos (wild type, PPARδ+/+). Nature of the experiment: Complete hatching of cultured wild type mouse embryos. The note with it: for rate of complete hatching versus control, ligand added at two-cell, eight-cell or morula stage: exposure 0-96, 24-96 and 48-96 hrs; for rate of complete hatching versus control, ligand added at two-cell, eight-cell or morula stage / rate of complete hatching versus control, ligand added at blastocyst stage: read at 96 hrs; for rate of complete hatching versus control, ligand added at blastocyst stage: exposure 72-96 hrs; for proportion of completely hatched embryos: 0.1 μM each ligand from two-cell stage, untreated 30%. In kind it is cell-based. An excerpt:
(§1) Harvest and culture of mouse embryos. Mice were obtained from the following sources: C3H, 129S1/SvImJ and C57BL6/J, the Jackson laboratory (Bar Harbor, Me., USA); ICR and C57BL6/Nhd, Harlan (Indianapolis, Ind., USA); PPARδ−/−, a gift from Dr. R. Evans (the Salk Institute, La Jolla, Calif.). The wild type (WT) counter parts of PPARδ−/− were bred by mating 129S1/SvImJ and the offspring of C57BL6/J×129S1/SvImJ. Mice were kept in temperature and humidity controlled environment (07:00 light on, 19:00 light off) with free access to food and water. The mouse embryos were harvested and cultured as described previously (Huang et al., 2003). Briefly, three-week old female mice were super-ovulated with intra-peritoneal injection of PMSG (5 IU) followed by hCG (5 IU) 42-46 hrs later. After hCG injection (at 15:00), each female mouse was caged with one male mouse with proven fertility. Unless specified otherwise, embryos (at two-cell stage) were harvested 44-48 hrs later and cultured (17-20 per group) at 37° C. under 5% CO2 in 4-well plates (Nalge Nunc International, Naperville, Ill., USA) containing 600 ul protein-free media. The HTF media (Sage Biopharma, Bedminster, N.J., USA) was used during the first 48 hrs; the αMEM (Irvine Scientific), with Earle's Salts and 2 mM glutamine, was used during the second 48 hrs. After 96 hrs of culture, each embryo was examined for the presence of zona pellucida. Those completely free of the zona pellucida were counted as having completely hatched. The rate of complete hatching was calculated by dividing the number of completely hatched embryos by the number of total embryos. Complete embryo hatching was used as an end point because it is a clear cut endpoint and correlates with the likelihood of implantation and viable pregnancy (Huang et al., 2003; Huang et al., 2004b). The concentration of the vehicle (DMSO) was less than 1:10,000; control embryos received the same concentration of DMSO. Prism® Version 3.0 (GraphPad Software Inc. San Diego, Calif.), with the Hill slope set at 1.0, was used to estimate the ED50 of L-165041. Chi-square and Student's t-tests were used where appropriate (InStat® Version 3.05, GraphPad Software Inc.). A p<0.05 was considered statistically significant.

The next experiment deals with PPARδ−/− embryos. The experiment can be described thus: Complete hatching of cultured PPARδ−/− mouse embryos. The note with it: 96 h; for effect on hatching of PPARδ−/− embryos: 0.1 μM from two-cell stage. In kind it is cell-based.
Description: as §1, with “DMSO.” for “DMSO. Prism® Version 3.0 (GraphPad Software Inc. San Diego, Calif.), with the Hill slope set at 1.0, was used to estimate the ED50 of L-165041. Chi-square and Student's t-tests were used where appropriate (InStat® Version 3.05, GraphPad Software Inc.). A p<0.05 was considered statistically significant.”

The test system of experiment [2] is preimplantation mouse embryos (C3B6F1). Nature of the experiment: TUNEL assay, dead cell index in cultured embryos. The format is cell-based. The note with it: 0.1 μM, 72 hrs of culture. As for the experimental part:
Terminal deoxynucleotidyl transferase mediated dUTP Nick End Labeling (TUNEL) and dead cell index. The embryonic cells that undergo programmed cell death were identified by TUNEL assay using a commercial kit (In Situ Cell Death Detection Kit, Roche Applied Science) with some modifications. At each time point indicated, embryos were collected after culture or harvested from mice and fixed in 4° C. PBS containing 4% buffered paraformaldehyde for 30 min. Prior to TUNEL, the embryos were incubated at 37° C. with 5% triton in PBS for 20 mins. The manufacturer's protocol was modified. Up to 20 blastocysts were incubated at 37° C. in 20 uL of TUNEL reaction solution (2 uL of TUNEL enzyme and 18 uL of 1:4 diluted labeling solution) in a humidified chamber for 60 mins. The embryos were then incubated in DAPI (30 ug/mL) for 5 mins at 37° C. before mounted in 16.6% Elvanol® 50-42 (Dupont, Wilmington, Del., USA) in 0.1 M Tris HCl pH 8.5. The apoptotic cells and the total cells were visualized using a fluorescence microscope (AxioPlan 2, Carl Zeiss, Germany) with FITC and UV filters, respectively. DNAse-treated embryos were used as positive controls. The dead cell index (percent of cells that were TUNEL positive) was determined by dividing the number of TUNEL-positive cells by the number of total cells then multiplies by 100%.

Experiment [3] concerns preimplantation mouse embryos. The experiment can be described thus: BrdU uptake, proliferation index and cell number in cultured embryos. In kind it is cell-based. As for the experimental part:
5-Bromo-2′-deoxy-uridine (BrdU) uptake and the proliferation index. The proliferation of embryonic cells was determined based on their abilities to incorporate BrdU. The assay was performed using a commercial kit (BrdU Labeling and Detection Kit I, Roche Applied Science, Indianapolis, Ind.) according to manufacturer's protocols with some optimizations. One of the changes was the duration of incubation. […] For the comparison between control and L165,041 treated embryos, the optimal time was 6 minutes. The modified procedure is as follows. Immediately after harvest, the embryos were incubated in 100 μl pre-equilibrated HTF medium containing 10 μM BrdU for […] at 37° C. under 5% CO2. Following the incubation, the embryos were fixed in ice-cold glycine (50 mM) in 70% ethanol (pH2.0) at −20° C. for 30 mins. Following rehydration/blocking in phosphate buffered saline (PBS) containing 1% BSA, the embryos were incubated with diluted anti-BrdU mouse monoclonal antibody (1:2) in the incubation buffer containing 1% BSA and followed by another incubation with a diluted FITC-conjugated […] IgG antibody (1:4) in PBS containing 1% BSA. Both incubations were at 37° C. and lasted for 30 mins; the embryos were washed in 200 μl PBS containing 1% BSA after each incubation. After a final incubation in DAPI (5 μg /ml) for 90 mins at 25° C., the embryos were mounted in 0.1 M Tris HCl (pH 8.5) containing 16.6% Elvanol® 50-42 (DuPont Wilmington, Del., USA) and 2.5% 1,4-diazabicyclo-(2.2.2)-octane. Cells that were in S-phase and, therefore, incorporated BrdU were identified under a FITC filter. Total cell number was determined based on DAPI nuclear staining under a UV filter (AxioPlan 2, Carl Zeiss, Germany). The proliferation index (percent of cells in S-phase) was determined by dividing the number of BrdU-positive cells by the number of total cells then multiplies by 100%.
The proliferation of embryonic cells was determined based on their abilities to incorporate BrdU. […] Total cell number was determined based on Hoechst 33258 nuclear staining under a UV filter.

The subject of experiment [4] is PPARδ+/+ embryos transferred to gestational carriers (ICR female mice). The experiment can be described thus: Embryo transfer to gestational carriers and determination of implantation rate. The note with it: wild type two-cell embryos treated 48 h, gestation sacs counted 72 h after transfer; control 41%, p<0.05. The format is in vivo, mouse. As for the experimental part: Embryo transfer was performed as described previously (Huang et al., 2004b). Briefly, embryos were transferred to gestational carriers (ICR female mice) on day 2.5 of pseudopregnancy under a dissecting microscope (Olympus SZ-PT, Shinjuku-ku, Tokyo, Japan). After anesthesia, each uterine horn was accessed via a 1.5 cm flank incision. With the proximal oviduct held by a pair of forceps, an opening was created at the distal end of the uterine horn on the anti-mesenteric side with a 30 gauge needle. […] Up to seven embryos in 1.5 μl transfer medium (MEM with 25 mM HEPES and 1% BSA) were transferred to each horn. After each transfer, the contents of the pipette were examined under a stereomicroscope to identify retained embryos. To avoid the mixing of embryos as a result of embryo crossover (Dr. Andreas Zimmer, University of Bonn, Germany, MG118 List, the Jackson Laboratory), each gestational carrier received only one kind of embryo. […] Seventy-two h after embryo transfer, the rates of implantation were determined based on a previously-described method with modifications (Paria et al., 1993). […] After the carrier was sacrificed, the uterine horns were opened and the gestation sacs counted. The implantation rate was expressed as percentages of gestation sacs over total embryos transferred. […]

A further experiment concerns PPARδ+/+ embryos. The experiment can be described thus: Developmental stage (blastocyst formation) of cultured embryos at time of transfer. The format is cell-based, mouse. The note with it: wild type two-cell embryos treated 48 h. From the text:
Harvest and culture of mouse embryos. Mice were obtained from the following sources: C3H, 129S1/SvImJ and C57BL6/J, the Jackson laboratory (Bar Harbor, Me., USA); ICR and C57BL6/Nhd, Harlan (Indianapolis, Ind., USA); PPARδ−/−, a gift from Dr. R. Evans (the Salk Institute, La Jolla, Calif.). The wild type (WT) counter parts of PPARδ−/− were bred by mating 129S1/SvImJ and the offspring of C57BL6/J×129S1/SvImJ. Mice were kept in temperature and humidity controlled environment (07:00 light on, 19:00 light off) with free access to food and water. The mouse embryos were harvested and cultured as described previously (Huang et al., 2003). […] Those completely free of the zona pellucida were counted as having completely hatched. The rate of complete hatching was calculated by dividing the number of completely hatched embryos by the number of total embryos. […]
Embryo transfer was performed as described previously (Huang et al., 2004b). […] Seventy-two h after embryo transfer, the rates of implantation were determined based on a previously-described method with modifications (Paria et al., 1993). […] After the carrier was sacrificed, the uterine horns were opened and the gestation sacs counted. The implantation rate was expressed as percentages of gestation sacs over total embryos transferred. […]

Experiment [5] concerns mouse embryos transferred to gestational carriers. The note with it: treated embryos transferred to gestational carriers; cited from earlier work.

As to `CCCc1c(OCCCOc2ccc(OCC(=O)O)cc2)ccc(C(C)=O)c1O` [L165,041, 4-[3-(4-Acetyl-3-hydroxy-2-propylphenoxy)propoxy]phenoxy-acetic acid], the “complete embryo hatching versus control” value in experiment [1] (1 μM ligand, two-cell embryos (C3B6F1), 96 hrs) is on record as “enhanced complete embryo hatching”. Also, the “relative risk of complete hatching versus control group” value in experiment [1] (1 μM, 96 hrs, 95% confidence interval 1.08-3.36) was determined as 1.9. Besides, the “rate of complete hatching versus control, ligand added at two-cell, eight-cell or morula stage” value was “significantly higher rates of complete hatching” in experiment [1] (1 μM) and “effective in stimulating embryo hatching” in experiment [1] (1 μM, listed as L-165041). Moreover, the “rate of complete hatching versus control, ligand added at blastocyst stage” value in experiment [1] (1 μM) is listed as “the difference was not statistically significant”; in experiment [1] (1 μM, listed as L-165041), “no longer effective in stimulating hatching”. In addition, the EC50 in experiment [1] (Mus musculus, two-cell embryos cultured 96 hrs in different concentrations, estimated, Hill slope 1.0, read-out: ED50 of enhancement of complete embryo hatching) is 21 nM. In addition, in experiment [1] (wild type embryos, 96 h), the “proportion of completely hatched embryos” value amounted to 54%. Besides, the “effect on hatching of PPARδ−/− embryos” value with PPARδ−/− embryos is recorded as “Neither iloprost nor L-165041 affected the hatching of PPARδ−/− embryos”. The “dead (apoptotic, TUNEL positive) cells versus control” value in experiment [2] was “less dead cells”. Besides, the “cells in the S-phase (BrdU incorporation) versus control” value in experiment [3] (0.1 μM, 72 hrs of culture, BrdU 6 minutes) is on record as “more cells in the S-phase”. Further, the “average number of cells per embryo” value in experiment [3] (0.1 μM, 72 hrs of culture, same in control group) is reported as 63. Further, in experiment [3] (10 μM BrdU, wild type embryos), the “percentages of BrdU-positive cells over the untreated control” value is reported as “increased the percentages of BrdU-positive cells”. Also, in experiment [4], the “implantation rate (gestation sacs over embryos transferred)” value was 64%. For the same compound, the “blastocyst formation versus control” value with PPARδ+/+ embryos is on record as “did not significantly enhance blastocyst formation”.
Take `CC#CCC(C)[C@H](O)/C=C/[C@@H]1[C@H]2C/C(=C/CCCC(=O)O)C[C@H]2C[C@H]1O` (some centres unmarked) [iloprost]: the “proportion of completely hatched embryos” value in experiment [1] (wild type embryos, 96 h) is reported as 50%. Further, the “completely hatched embryos versus total embryos” value in experiment [1] (wild type embryos, 0.1 μM, 96 h) is recorded as 37/74; in the experiment with PPARδ−/− embryos (PPARδ−/− embryos, 0.1 μM, untreated 4/144), 3/144. Further, in the experiment with PPARδ−/− embryos, the “effect on hatching of PPARδ−/− embryos” value is “had no effect”. For the same compound, in experiment [5], the “more live births over control embryos” value is reported as 28%.
